Assay results published in patent US12201633B2, “Compounds and methods for treatment of visceral pain” (Arena Pharmaceuticals, Inc., priority 2017, dated 2025).

Each compound was assayed against human CB2 receptor (Homo sapiens, UniProt P34972) (assay: PathHunter β-arrestin assay, CB2). Settings: not given.
human CB2 receptor, sequence (P34972 whole entry): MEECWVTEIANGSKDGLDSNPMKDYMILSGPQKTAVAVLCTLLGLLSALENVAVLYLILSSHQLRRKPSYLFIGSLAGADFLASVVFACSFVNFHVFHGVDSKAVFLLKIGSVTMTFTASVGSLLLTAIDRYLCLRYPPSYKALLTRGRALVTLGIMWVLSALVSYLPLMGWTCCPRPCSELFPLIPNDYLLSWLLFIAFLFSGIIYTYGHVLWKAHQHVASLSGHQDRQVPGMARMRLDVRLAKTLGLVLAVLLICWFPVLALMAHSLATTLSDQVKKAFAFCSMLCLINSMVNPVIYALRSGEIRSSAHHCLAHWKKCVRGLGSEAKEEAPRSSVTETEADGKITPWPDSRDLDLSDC
CC(C)(CO)NC(=O)c1nn(-c2cc(F)ccn2)c2c1C[C@H]1C[C@@H]21 [Compound 931, (1aR,5aR)-2-(4-Fluoro-pyridin-2-yl)-1a,2,5,5a-tetrahydro-1H-2,3-diaza-cyclopropa[a]pentalene-4-carboxylic acid (2-hydroxy-1,1-dimethyl-ethyl)-amide] was tested, and the EC50 was 20.8 nM. Work on CC(C)(COP(=O)(O)O)NC(=O)c1nn(-c2cc(C#N)ccn2)c2c1C[C@H]1C[C@@H]21 [Compound 646, Phosphoric acid mono-(2-{[(1aR,5aR)-2-(4-cyano-pyridin-2-yl)-1a,2,5,5a-tetrahydro-1H-2,3-diaza-cyclopropa[a]pentalene-4-carbonyl]-amino}-2-methyl-propyl) ester] yielded an EC50 of 925 nM. Compound CC(C)[C@@H](C)NC(=O)c1nn(-c2c[n+]([O-])ccn2)c2c1C[C@H]1C[C@@H]21 [Compound 828, (1aR,5aR)-2-(4-Oxy-pyrazin-2-yl)-1a,2,5,5a-tetrahydro-1H-2,3-diaza-cyclopropa[a]pentalene-4-carboxylic acid ((R)-1,2-dimethyl-propyl)-amide] has an EC50 of 4.14 nM. Compound CC(C)(C)[C@@H](NC(=O)c1nn(-c2c[n+]([O-])ccn2)c2c1C[C@@H]1C[C@H]21)c1ccccn1 [Compound 766, (1aS,5aS)-2-(4-Oxy-pyrazin-2-yl)-1a,2,5,5a-tetrahydro-1H-2,3-diaza-cyclopropa[a]pentalene-4-carboxylic acid ((R)-2,2-dimethyl-1-pyridin-2-yl-propyl)-amide] has an EC50 of 4.57 nM. In the case of O=C(N[C@H]1c2ccccc2C[C@@H]1O)c1nn(-c2c[n+]([O-])ccn2)c2c1C[C@@H]1C[C@H]21 [Compound 920, (1aS,5aS)-2-(4-Oxy-pyrazin-2-yl)-1a,2,5,5a-tetrahydro-1H-2,3-diaza-cyclopropa[a]pentalene-4-carboxylic acid ((1S,2S)-2-hydroxy-indan-1-yl)-amide], the EC50 is reported as 4.6 nM. For CC(C)(C)NNC(=O)c1nn(-c2c[n+]([O-])ccn2)c2c1C[C@@H]1C[C@H]21 [Compound 902, (1aS,5aS)-2-(4-Oxy-pyrazin-2-yl)-1a,2,5,5a-tetrahydro-1H-2,3-diaza-cyclopropa[a]pentalene-4-carboxylic acid N′-tert-butyl-hydrazide], the EC50 was 77.5 nM. Work on O=C(NC1(C(F)(F)F)CC1)c1nn(-c2cnccn2)c2c1C[C@@H]1C[C@H]21 [Compound 930, (1aS,5aS)-2-Pyrazin-2-yl-1a,2,5,5a-tetrahydro-1H-2,3-diaza-cyclopropa[a]pentalene-4-carboxylic acid (1-trifluoromethyl-cyclopropyl)-amide] yielded an EC50 of 17 nM. Compound CC(C)(CF)NC(=O)c1nn(-c2c[n+]([O-])ccn2)c2c1C[C@@H]1C[C@H]21 [Compound 904, (1aS,5aS)-2-(4-Oxy-pyrazin-2-yl)-1a,2,5,5a-tetrahydro-1H-2,3-diaza-cyclopropa[a]pentalene-4-carboxylic acid (2-fluoro-1,1-dimethyl-ethyl)-amide] has an EC50 of 31.4 nM. CC(C)(C)[C@@H](COP(=O)(O)O)NC(=O)c1nn(-c2c[n+]([O-])ccn2)c2c1C[C@H]1C[C@@H]21 [Compound 703, Phosphoric acid mono-((S)-3,3-dimethyl-2-{[(1aR,5aR)-2-(4-oxy-pyrazin-2-yl)-1a,2,5,5a-tetrahydro-1H-2,3-diaza-cyclopropa[a]pentalene-4-carbonyl]-amino}-butyl) ester] was tested, and the EC50 was 603 nM. CC(C)(C)[C@H](NC(=O)c1nn(-c2c[n+]([O-])ccn2)c2c1C[C@@H]1C[C@H]21)c1ccccn1 [Compound 767, (1aS,5aS)-2-(4-Oxy-pyrazin-2-yl)-1a,2,5,5a-tetrahydro-1H-2,3-diaza-cyclopropa[a]pentalene-4-carboxylic acid ((S)-2,2-dimethyl-1-pyridin-2-yl-propyl)-amide] showed an EC50 of 66.6 nM. For CC(C)[C@@H](C)NC(=O)c1nn(-c2c[n+]([O-])ccn2)c2c1C[C@@H]1C[C@H]21 [Compound 912, (1aS,5aS)-2-(4-Oxy-pyrazin-2-yl)-1a,2,5,5a-tetrahydro-1H-2,3-diaza-cyclopropa[a]pentalene-4-carboxylic acid ((R)-1,2-dimethyl-propyl)-amide], the EC50 was 9.49 nM. Work on CC(C)[C@H](N)C(=O)OC[C@@H](NC(=O)c1nn(-c2c[n+]([O-])ccn2)c2c1C[C@@H]1C[C@H]21)C(C)(C)C [Compound 848, (1aS,5aS)—(S)-2-Amino-3-methyl-butyric acid (S)-3,3-dimethyl-2-{[2-(4-oxy-pyrazin-2-yl)-1a,2,5,5a-tetrahydro-1H-2,3-diaza-cyclopropa[a]pentalene-4-carbonyl]-amino}-butyl ester] yielded an EC50 of 50 nM. COC(=O)C(NC(=O)c1nn(-c2c[n+]([O-])ccn2)c2c1C[C@H]1C[C@@H]21)c1ccccn1 (stereo partly drawn) [Compound 711, {[(1aR,5aR)-2-(4-Oxy-pyrazin-2-yl)-1a,2,5,5a-tetrahydro-1H-2,3-diaza-cyclopropa[a]pentalene-4-carbonyl]-amino}-pyridin-2-yl-acetic acid methyl ester] gave an EC50 of 28.1 nM. CNC(=O)[C@@H](NC(=O)c1nn(-c2c[n+]([O-])ccn2)c2c1C[C@H]1C[C@@H]21)c1ccccc1 [Compound 722, (1aR,5aR)-2-(4-Oxy-pyrazin-2-yl)-1a,2,5,5a-tetrahydro-1H-2,3-diaza-cyclopropa[a]pentalene-4-carboxylic acid ((S)-methylcarbamoyl-phenyl-methyl)-amide] was tested, and the EC50 was 34 nM. Work on CC(C)[C@@H](CO)NC(=O)c1nn(-c2c[n+]([O-])ccn2)c2c1C[C@@H]1C[C@H]21 [Compound 896, (1aS,5aS)-2-(4-Oxy-pyrazin-2-yl)-1a,2,5,5a-tetrahydro-1H-2,3-diaza-cyclopropa[a]pentalene-4-carboxylic acid ((S)-1-hydroxymethyl-2-methyl-propyl)-amide] yielded an EC50 of 43.5 nM. In the case of CC(C)(C)[C@@H](COP(=O)(O)O)NC(=O)c1nn(-c2cnccn2)c2c1C[C@H]1C[C@@H]21 [Compound 683, Phosphoric acid mono-{(S)-3,3-dimethyl-2-[((1aR,5aR)-2-pyrazin-2-yl-1a,2,5,5a-tetrahydro-1H-2,3-diaza-cyclopropa[a]pentalene-4-carbonyl)-amino]-butyl} ester], the EC50 is reported as 3000 nM.

Same assay, conditions: read-out: EC50 hCB2; β-arrestin, CHO-K1 cells; Table B-2
Work on O=C(N[C@H](CO)c1ccccc1)c1nn(-c2c[n+]([O-])ccn2)c2c1C[C@@H]1C[C@H]21 [Compound 913, (1aS,5aS)-2-(4-Oxy-pyrazin-2-yl)-1a,2,5,5a-tetrahydro-1H-2,3-diaza-cyclopropa[a]pentalene-4-carboxylic acid ((S)-2-hydroxy-1-phenyl-ethyl)-amide] yielded an EC50 of 105 nM. Compound O=C(NC1(C(F)(F)F)CC1)c1nn(-c2c[n+]([O-])ccn2)c2c1C[C@@H]1C[C@H]21 [Compound 764, (1aS,5aS)-2-(4-Oxy-pyrazin-2-yl)-1a,2,5,5a-tetrahydro-1H-2,3-diaza-cyclopropa[a]pentalene-4-carboxylic acid (1-trifluoromethyl-cyclopropyl)-amide] has an EC50 of 5.92 nM.
